Laboratory results published in a melting point compilation (Tetko et al.).

Structure (SMILES) | melting point
O=C(O)c1cc2ccccc2c(=O)[nH]1 | 318 to 320 °C
CC(=O)CC(=O)Nc1ccc(F)cc1 | 101 to 103 °C
CC1CNc2ccccc2C(=O)N1 (configuration not stated) | 189 to 191 °C
O=c1[nH]c(-c2ccc3c(c2)OCCO3)cs1 | 229 to 231 °C
C=CCNS(=O)(=O)c1cc(C(=O)O)ccc1F | 164 to 166 °C
COc1ccccc1-c1nnc(S)n1N | 210 to 220 °C
O=C(O)C1CCN(c2cccc(Cl)c2)C1=O (configuration not stated) | 113 to 115 °C
Cc1cc(NC(=O)OC(C)(C)C)ccn1 | 167 to 169 °C
COc1ccc(COc2cccc(F)c2)cc1N | 57 to 59 °C
CCOCCCNC(=S)NCc1ccc(OC)cc1 | 39 to 41 °C
COc1cc(OC)cc(-n2c(C)c(C)c(C#N)c2N)c1 | 166 to 168 °C
O=C(O)CN1C(=O)COc2ccc(S(=O)(=O)Cl)cc21 | 159 to 161 °C
O=C(O)CCc1nnc(-c2cccnc2)o1 | 197 to 199 °C
CCc1nc(C(=O)O)c[nH]1 | 239 to 241 °C
COc1c(F)cc(Br)cc1S(=O)(=O)Cl | 50 to 52 °C
COC(=O)c1cc(C(=O)O)ccn1 | 233 to 235 °C
O=C(O)Cc1csc(-c2cccc(Br)c2)n1 | 106 to 110 °C
O=C(c1ccccc1F)N1CCC(O)CC1 | 104 to 106 °C
COc1ccc(Cl)c(N=C=O)c1 | 38 to 40 °C
COCCNC(=O)Cc1ccc(N)cc1 | 50 to 52 °C
COc1cc(C)nc(NN)n1 | 116 to 118 °C
O=c1oc2ccccc2nc1NO | 254 to 256 °C
O=C(O)CCc1ccc(S(=O)(=O)N2CCCC2)cc1 | 137 to 139 °C
CCOC(=O)Cc1nn[nH]n1 | 120 to 127 °C
Clc1nc(-c2cccnc2)nc2sc(-c3ccccc3)cc12 | 179 to 182 °C
O=C(O)c1ccc2c(c1)C(=O)N(C1CCCCC1)C2=O | 188 to 201 °C

Structure (SMILES) | melting point
CN1CC(=O)Nc2cc(Cl)ccc21 | 181 to 183 °C
C=C(C)CNC(=S)NN | 86 to 88 °C
O=C(O)C1CCCN1C(=O)Nc1ccc(F)cc1 (configuration not stated) | 163 to 165 °C
Cc1cc(S(=O)(=O)N(C)C)cc(N)c1C | 178 to 180 °C
O=C(O)C=Cc1cncc(F)c1 | 234 to 236 °C
Nc1ccc(Cc2nnn[nH]2)cc1 | 174 to 176 °C
Cc1nn(C)cc1C=O | 46 to 48 °C
O=C(O)CCc1ccccc1OC(F)(F)F | 49 to 51 °C
COc1cc(C)c(S(=O)(=O)Cl)cc1C | 98 to 100 °C
NNc1cnccn1 | 109 to 113 °C
O=C1CCCN1c1ccc(O)cc1 | 159 to 161 °C
O=C(O)c1cnn(-c2ccccc2Cl)c1 | 170 to 172 °C
COc1ccc2[nH]c(C)nc2c1 | 119 to 121 °C
Cc1ccc(S(=O)(=O)NCCCC(=O)O)cc1C | 111 to 113 °C
CC(NS(=O)(=O)c1ccccc1C(F)(F)F)C(=O)O (configuration not stated) | 105 to 107 °C
CC(Cl)C(=O)NC1CCCCC1 (configuration not stated) | 98 to 100 °C
O=C(O)c1ccc(Nc2ncnc3ccccc23)cc1 | 345 to 347 °C
O=C(O)c1cccc(NC(=O)c2ccc(F)cc2)c1 | 279 to 281 °C
CCc1ccc2c(CC(=O)O)coc2c1 | 82 to 84 °C
O=S(=O)(Nc1ccccc1Br)N1CCCC1 | 69 to 71 °C
O=C1CN(Cc2ccccc2)CCN1 | 150 to 152 °C
c1ccc(NCC2CCCCC2)nc1 | 91 to 93 °C
Cc1cc(CSc2ccccc2C(=O)O)on1 | 157 to 161 °C
O=[N+]([O-])c1cnc(O)c(Cl)c1 | 198 to 200 °C
Cc1c(S(=O)(=O)Cl)sc2cc(Cl)ccc12 | 83 to 85 °C
O=c1cc(CCl)nc2ccccn12 | 173 to 175 °C

Structure (SMILES) | melting point
Nc1cccc(-c2c3c(=O)[nH][nH]c(=O)c3c3n2CCC3)c1 | 331 to 333 °C
Cc1[nH]cnc1CO | 233 to 235 °C
COc1nc(C)ccc1C(=O)O | 107 to 109 °C
Cc1cccc(-n2c(C)cc(C(=O)O)c2C)c1 | 194 to 196 °C
CCNC(C(=O)O)c1ccc(F)c(F)c1 (configuration not stated) | 277 to 279 °C
OCCOC1CCNCC1 | 61 to 63 °C
Nc1nc(-c2c(F)cccc2F)co1 | 139 to 141 °C
O=C(O)c1ccc(-n2ccnc2)nn1 | 238 to 240 °C
O=C(NO)c1c(F)cccc1Cl | 149 to 151 °C
N#Cc1ccc(OCCN)nc1 | 101 to 103 °C
O=C(CCl)Cc1c(F)cccc1Cl | 37 to 39 °C
COc1ccc(C)cc1CC(=O)O | 131 to 133 °C
CN(C)c1ncnc(Cl)c1C=O | 141 to 143 °C
Nc1nc(-c2cc3ccccc3o2)cs1 | 243 to 245 °C
Nc1ccc(-c2nnc[nH]2)cc1 | 203 to 205 °C
Cc1cc(C#N)ccc1N1CC2CCC1C2 (configuration not stated) | 69 to 71 °C
COc1cc(C(=O)Oc2ccc(C=O)cc2)cc(OC)c1OC | 113 to 115 °C
Cc1ccc(-c2nn(-c3ccccc3)cc2C(=O)O)cc1C | 215 to 217 °C
CCOC(=O)NC(=S)Nc1nccs1 | 169 to 171 °C
CNCc1ccc(N)nc1 | 84 to 86 °C
Nc1cccc(-c2ccc3c(c2)CCO3)n1 | 123 to 125 °C
O=C1NC(=O)C(c2cccc(O)c2)N1 (configuration not stated) | 213 to 215 °C
Cc1nnc(Cl)c(C#N)c1C | 61 to 63 °C
Cc1ccc(C(=O)Nc2nc3ccc(N)cc3s2)s1 | 250 to 252 °C
Nc1n[nH]c2c(Cl)cccc12 | 189 to 191 °C
O=C(O)C(Cc1ccccc1)NC(=O)C12CC3CC(CC(C3)C1)C2 (configuration not stated) | 162 to 164 °C

Structure (SMILES) | melting point
CC(C)c1ccc(N2CCC(C(=O)O)C2=O)cc1 (configuration not stated) | 129 to 131 °C
O=C(O)c1nn(-c2ccc(F)cc2)c2c1CCC2 | 202 to 204 °C
O=C(O)Cn1ccnn1 | 214 to 216 °C
Cc1ccc(C(NC(=O)CCl)c2cccs2)cc1 (configuration not stated) | 110 to 112 °C
N#CC1(N2CCNCC2)CCCCC1 | 82 to 84 °C
O=Cc1cccc2cn[nH]c12 | 121 to 123 °C
NC(=O)N1CC=C(c2ccc(O)cc2)CC1 | 244 to 246 °C
CN(c1cc(C(=O)O)ccn1)C1CCCC1 | 179 to 181 °C
c1n[nH]cc1C1CCCCN1 (configuration not stated) | 114 to 116 °C
COc1cc(C(=O)O)cc(Cl)c1OCC(N)=O | 211 to 213 °C
CN(C)S(=O)(=O)c1ccc(C(=O)O)cc1 | 249 to 251 °C
CC(=O)c1cccc(OCc2cn3ccccc3n2)c1 | 77 to 79 °C
O=S(=O)(Cl)Cc1ccc(F)cc1Br | 45 to 47 °C
NCC(=O)Nc1ccc(F)cc1 | 85 to 87 °C
NC(=O)CC1CCCC1 | 149 to 151 °C
Sc1nc2cc(Cl)cc(Cl)c2[nH]1 | 376 to 378 °C
CC(C)(C)CNC(N)=O | 148 to 150 °C
Cc1ccccc1C(=O)CC#N | 84 to 86 °C
O=C(O)c1cccc(Oc2cccc(Cl)c2)n1 | 96 to 98 °C
CCC(C)Oc1ccccc1C=CC(=O)O (configuration not stated) | 83 to 85 °C
O=Cc1cn(-c2ccccc2)nc1-c1ccc(Cl)cc1 | 125 to 127 °C
O=C(O)c1cccnc1SC(F)F | 184 to 188 °C
COc1ccccc1NCCC(N)=O | 94 to 96 °C
O=C(O)CCNS(=O)(=O)c1ccc(Br)cc1 | 161 to 163 °C
